In data set [1] the test system is Hepatitis C virus. Description: microbe, parasite or virus in culture.
The subject of data set [2] is Hepatitis C virus. The experiment in a line: Antiviral activity against HCV GT1b-genotype assessed as inhibition of viral replication. Format: functional, organism-based, Hepacivirus hominis.
A short description of data set [3]: in vitro. To be noted: human, Huh-7 cells.
Data set [4] has as its system Vesicular stomatitis virus. Description: microbe, parasite or virus in culture.
In data set [5] the test system is Ebolavirus. The experiment in a line: microbe, parasite or virus in culture. Format: functional, organism-based. Particulars: Orthoebolavirus.
Data set [6] deals with Ebolavirus. Description: microbe, parasite or virus in culture. Particulars: Orthoebolavirus.
The test system of data set [7] is Lassa virus. The experiment in a line: microbe, parasite or virus in culture. To be noted: Mammarenavirus lassaense, A549.
In data set [8] the test system is Ebolavirus. Description: microbe, parasite or virus in culture. Particulars: Orthoebolavirus, Huh-7.
For data set [9], the system named is Lassa virus. Description: microbe, parasite or virus in culture. Particulars: Mammarenavirus lassaense.
Data set [10] relates to Marburgvirus. Description: microbe, parasite or virus in culture. Particulars: Orthomarburgvirus.
In data set [11] the test system is Ebolavirus. The experiment in a line: microbe, parasite or virus in culture. To be noted: Orthoebolavirus. This is another data set of the same source.
In data set [12] the test system is Marburgvirus. The experiment in a line: microbe, parasite or virus in culture. Format: functional, organism-based. To be noted: Orthomarburgvirus.
The subject of data set [13] is Lassa virus. Description: microbe, parasite or virus in culture. Particulars: Mammarenavirus lassaense. This is another data set of the same source.
Data set [14] in a line: in vitro. Particulars: chlorocebus sabaeus, vero.
The target of data set [15] is Tyrosine-protein kinase JAK2 (Homo sapiens, UniProt O60674).
Sequence of Tyrosine-protein kinase JAK2 (O60674 whole entry): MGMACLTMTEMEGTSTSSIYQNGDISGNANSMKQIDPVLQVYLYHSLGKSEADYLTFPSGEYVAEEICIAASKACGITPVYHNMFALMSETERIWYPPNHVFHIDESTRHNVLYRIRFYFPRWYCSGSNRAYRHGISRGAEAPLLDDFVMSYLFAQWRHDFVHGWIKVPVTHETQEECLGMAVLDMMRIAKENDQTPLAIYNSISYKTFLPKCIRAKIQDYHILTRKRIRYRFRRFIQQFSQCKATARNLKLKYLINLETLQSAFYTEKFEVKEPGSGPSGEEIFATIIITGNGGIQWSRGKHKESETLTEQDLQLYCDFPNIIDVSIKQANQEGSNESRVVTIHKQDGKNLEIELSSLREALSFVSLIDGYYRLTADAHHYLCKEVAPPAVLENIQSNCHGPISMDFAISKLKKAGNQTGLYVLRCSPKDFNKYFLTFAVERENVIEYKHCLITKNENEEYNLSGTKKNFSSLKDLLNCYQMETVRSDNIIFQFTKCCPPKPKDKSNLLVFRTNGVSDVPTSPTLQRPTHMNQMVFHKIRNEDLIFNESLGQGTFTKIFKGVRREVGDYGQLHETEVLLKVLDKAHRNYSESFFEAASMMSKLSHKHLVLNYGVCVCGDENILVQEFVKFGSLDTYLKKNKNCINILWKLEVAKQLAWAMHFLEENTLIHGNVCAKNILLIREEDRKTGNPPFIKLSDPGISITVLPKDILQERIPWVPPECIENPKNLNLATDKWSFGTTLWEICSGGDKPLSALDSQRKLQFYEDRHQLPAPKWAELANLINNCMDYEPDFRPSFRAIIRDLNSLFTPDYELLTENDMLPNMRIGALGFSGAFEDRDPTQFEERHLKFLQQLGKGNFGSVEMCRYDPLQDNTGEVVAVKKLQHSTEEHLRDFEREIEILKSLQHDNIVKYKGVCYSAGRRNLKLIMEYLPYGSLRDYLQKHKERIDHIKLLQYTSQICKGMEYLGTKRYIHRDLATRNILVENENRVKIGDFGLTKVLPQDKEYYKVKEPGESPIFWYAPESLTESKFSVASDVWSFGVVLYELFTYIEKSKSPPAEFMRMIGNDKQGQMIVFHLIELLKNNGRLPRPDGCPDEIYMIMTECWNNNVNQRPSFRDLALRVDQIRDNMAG
The test system of data set [16] is SARS-CoV-2. The experiment in a line: microbe, parasite or virus in culture. Type of data set: functional, organism-based. Particulars: Severe acute respiratory syndrome coronavirus 2, Huh-7.
The subject of data set [17] is SARS-CoV-2. The experiment in a line: microbe, parasite or virus in culture. To be noted: Severe acute respiratory syndrome coronavirus 2. Format: functional, organism-based.
The nature of data set [18]: in vitro. To be noted: chlorocebus sabaeus, vero c1008.
The next data set has as its target Janus Kinase (JAK) (Homo sapiens, UniProt P52333+P23458+O60674+P29597). Type of data set: protein assay.
A short description of data set [19]: in vitro. To be noted: dog, MDCK cells.
Data set [20] concerns Influenza A virus. Description: microbe, parasite or virus in culture. Type of data set: functional, organism-based.
For data set [21], the system named is SARS-CoV-2. The experiment in a line: microbe, parasite or virus in culture. Type of data set: functional, organism-based, Vero E6. Particulars: Severe acute respiratory syndrome coronavirus 2, Vero C1008.
A short description of data set [22]: Cytotoxicity against human A549 cells. Type of data set: toxicity, cell-based.
The nature of data set [23]: Volume of distribution at steady state in Beagle dog plasma at 1 mg/kg, iv at […] LC-MS/MS analysis. Type of data set: ADME, organism-based, Canis lupus familiaris. Particulars: time 0.083 hrs, read-out: Vdss.
Data set [24] is described as follows: Volume of distribution at steady state in cynomolgus monkey plasma at 3 mg/kg, iv at […] LC-MS/MS analysis. Type of data set: ADME, organism-based, Macaca fascicularis. Particulars: time 0.083 hrs, read-out: Vdss.
The nature of data set [25]: Volume of distribution at steady state in Han-Wistar rat plasma at 5 mg/kg, iv at […] LC-MS/MS analysis. Format: ADME, organism-based. To be noted: time 0.083 hrs, read-out: Vdss.
A short description of data set [26]: Volume of distribution at steady state in CD-1 mouse plasma at 10 mg/kg, iv at […] LC-MS/MS analysis. To be noted: time 0.083 hrs, read-out: Vdss. Type of data set: ADME, organism-based.
Another data set deals with Vero C1008. Description: Cytotoxicity against African green monkey Vero E6 cells at 250 nM. Format: toxicity, cell-based. To be noted: chlorocebus sabaeus, vero c1008, 0.25 µM.
Data set [27] has as its system Influenza A virus. The experiment in a line: microbe, parasite or virus in culture. Particulars: H1N1pdm09. Type of data set: functional, organism-based.
For data set [28], the system named is Influenza A virus. Description: microbe, parasite or virus in culture. Format: functional, organism-based. Particulars: H3N2.
Data set [29] in a line: Cytotoxicity against golden hamster BSR cells. Type of data set: toxicity, cell-based, Mesocricetus auratus.
The next data set concerns Lyssavirus rabies. Description: microbe, parasite or virus in culture. Type of data set: functional, organism-based.
Data set [30] concerns Influenza A virus. The experiment in a line: Antiviral activity against influenza A/Regensburg/D6/2009 virus. Format: functional, organism-based.
The target in data set [31] is Receptor tyrosine-protein kinase erbB-2 (Homo sapiens, UniProt P04626). The experiment in a line: Inhibition of HER2/ErbB-2 (unknown origin).
Sequence of Receptor tyrosine-protein kinase erbB-2 (P04626 whole entry): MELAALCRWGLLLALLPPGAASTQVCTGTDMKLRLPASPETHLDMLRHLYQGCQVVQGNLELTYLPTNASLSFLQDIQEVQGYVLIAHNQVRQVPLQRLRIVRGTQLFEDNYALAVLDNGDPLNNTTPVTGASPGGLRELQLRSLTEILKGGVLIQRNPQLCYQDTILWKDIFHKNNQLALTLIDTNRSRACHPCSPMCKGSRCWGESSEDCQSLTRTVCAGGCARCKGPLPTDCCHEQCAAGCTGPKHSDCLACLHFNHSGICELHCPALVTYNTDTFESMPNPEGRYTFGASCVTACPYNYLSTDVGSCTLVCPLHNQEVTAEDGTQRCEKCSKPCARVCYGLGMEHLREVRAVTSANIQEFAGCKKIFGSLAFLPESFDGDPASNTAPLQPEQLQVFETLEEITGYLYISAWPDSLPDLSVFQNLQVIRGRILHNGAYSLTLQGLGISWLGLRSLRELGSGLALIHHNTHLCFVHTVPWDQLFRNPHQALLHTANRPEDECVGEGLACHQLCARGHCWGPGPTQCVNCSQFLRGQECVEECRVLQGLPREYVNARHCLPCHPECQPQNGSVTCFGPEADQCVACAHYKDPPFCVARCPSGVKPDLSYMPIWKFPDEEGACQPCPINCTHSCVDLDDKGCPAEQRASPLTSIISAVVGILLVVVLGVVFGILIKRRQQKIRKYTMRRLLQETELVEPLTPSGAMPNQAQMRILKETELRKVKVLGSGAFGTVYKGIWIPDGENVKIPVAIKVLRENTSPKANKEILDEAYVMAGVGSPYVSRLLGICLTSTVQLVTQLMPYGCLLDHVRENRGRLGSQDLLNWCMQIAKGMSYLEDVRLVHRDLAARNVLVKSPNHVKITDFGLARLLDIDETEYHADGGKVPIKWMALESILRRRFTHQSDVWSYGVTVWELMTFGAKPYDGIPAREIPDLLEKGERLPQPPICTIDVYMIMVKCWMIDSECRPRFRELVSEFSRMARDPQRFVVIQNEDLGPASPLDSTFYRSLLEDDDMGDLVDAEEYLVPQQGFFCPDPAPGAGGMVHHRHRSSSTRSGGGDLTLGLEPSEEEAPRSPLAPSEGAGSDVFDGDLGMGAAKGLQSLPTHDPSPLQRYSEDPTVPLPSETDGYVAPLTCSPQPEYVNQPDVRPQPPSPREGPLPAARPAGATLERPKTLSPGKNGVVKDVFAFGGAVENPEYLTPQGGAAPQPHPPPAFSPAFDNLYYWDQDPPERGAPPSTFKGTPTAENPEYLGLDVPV
Data set [32] deals with Influenza A virus. The experiment in a line: Antiviral activity against influenza A virus infected in human A549 cells assessed as inhibition of viral replication at 10 uM relative to control. Type of data set: functional. Details: scale not given: the % may be the effect or the level left.
Data set [33] concerns the target AP2-associated protein kinase 1 (Homo sapiens, UniProt Q2M2I8).

Usually EC50 stands for the midpoint of the concentration-response curve. As usually defined, the IC50 is the midpoint of a concentration-inhibition curve. For orientation: Kd means the equilibrium constant for the complex coming apart.

SMILES strings stand for the structures.

Sequence of AP2-associated protein kinase 1 (Q2M2I8 whole entry): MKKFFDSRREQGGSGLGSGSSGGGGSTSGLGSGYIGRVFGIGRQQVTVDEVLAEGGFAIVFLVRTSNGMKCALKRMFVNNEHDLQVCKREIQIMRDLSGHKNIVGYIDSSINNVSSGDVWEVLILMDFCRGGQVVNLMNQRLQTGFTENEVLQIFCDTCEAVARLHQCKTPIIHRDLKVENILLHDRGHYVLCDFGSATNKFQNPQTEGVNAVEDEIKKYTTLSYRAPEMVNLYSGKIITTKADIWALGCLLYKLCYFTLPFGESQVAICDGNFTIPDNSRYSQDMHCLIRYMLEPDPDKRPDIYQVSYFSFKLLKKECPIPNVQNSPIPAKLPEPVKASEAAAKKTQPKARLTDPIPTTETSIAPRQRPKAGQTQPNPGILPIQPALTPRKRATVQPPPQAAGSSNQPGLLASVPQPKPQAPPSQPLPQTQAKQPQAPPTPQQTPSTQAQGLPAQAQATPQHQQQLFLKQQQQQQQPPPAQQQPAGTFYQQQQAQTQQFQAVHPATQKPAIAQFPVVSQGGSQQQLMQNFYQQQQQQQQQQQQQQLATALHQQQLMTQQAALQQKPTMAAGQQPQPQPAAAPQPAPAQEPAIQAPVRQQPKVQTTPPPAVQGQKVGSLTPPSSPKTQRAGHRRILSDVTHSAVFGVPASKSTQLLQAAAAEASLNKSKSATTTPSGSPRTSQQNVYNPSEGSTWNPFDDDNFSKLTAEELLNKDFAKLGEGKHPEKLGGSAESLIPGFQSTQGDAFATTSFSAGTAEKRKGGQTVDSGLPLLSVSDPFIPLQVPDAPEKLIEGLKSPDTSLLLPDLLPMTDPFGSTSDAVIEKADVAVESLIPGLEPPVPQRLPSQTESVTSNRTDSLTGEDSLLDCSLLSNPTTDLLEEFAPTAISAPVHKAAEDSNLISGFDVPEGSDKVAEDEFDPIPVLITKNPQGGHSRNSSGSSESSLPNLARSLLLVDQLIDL

For `CC(C)S(=O)(=O)n1c(N)nc2ccc(/C(=N/O)c3ccccc3)cc21` [ENVIROXIME], the results for the concentration giving a half-maximal response (EC50) with Hepatitis C virus [1] and in the data set with Hepatitis C virus [2] were 200 nM and 100 nM, respectively. The molecule further returned a CC50 in the data set “in vitro [3]” of 25000 nM.
Turning to `CN1CCC(Nc2ncc3ncnc(Nc4ccc(F)c(Cl)c4)c3n2)CC1` [FALNIDAMOL], the 50% effective concentration (EC50) was determined as 30900 nM in data set [4]; 1100 nM with Ebolavirus [5]; 1200 nM in the data set with Ebolavirus [6]; 3200 nM in the data set on Lassa virus [7]; 1100 nM in the data set with Ebolavirus [8]; 7500 nM with Lassa virus [9]. The 50% effective concentration (EC50) was determined as 1800 nM in the data set on Marburgvirus [10], 1600 nM in the data set on Ebolavirus [11], 1800 nM in the data set on Marburgvirus [12] and 3200 nM in the data set on Lassa virus [13]. In “in vitro [14]”, this molecule came in with a CC50 of 29100 nM.
With `Cc1cc(Nc2cc(CN3CCOCC3)c3nc(C)c(Cc4ccc(Cl)cc4F)n3n2)n[nH]1` [GANDOTINIB], half-maximal inhibition in [15] (IC50) required 3 nM.
With `CCc1nc(C(N)=O)c(Nc2ccc(N3CCC(N4CCN(C)CC4)CC3)c(OC)c2)nc1NC1CCOCC1` [GILTERITINIB], inhibition with SARS-CoV-2 [16] was half-maximal at 225 nM (IC50). Further, in the data set on SARS-CoV-2 [17], the EC50 worked out at 225 nM. Moreover, in “in vitro [18]”, the CC50 was above 500 nM.
Consider `N#CCC1CCN(c2nc(Nc3ccc(N4CCC(O)CC4)cc3)c3c(=O)[nH]ncc3n2)CC1` [GUSACITINIB], for which the IC50 against Janus Kinase (JAK) is on record as 5 nM.
Consider `CCS(=O)(=O)Nc1ccc2c(c1)/C(=C(/Nc1ccc(CN3CCCCC3)cc1)c1ccccc1)C(=O)N2` [HESPERADIN], for which the CC50 in “in vitro [19]” is 21300 nM. In addition, the EC50 in the data set with Influenza A virus [20] was 280 nM.
For `Cc1cc(Nc2cc3ncccc3c(N[C@@H]3C[C@H]4CC[C@@H](C3)N4CCC#N)n2)n[nH]1` [IZENCITINIB], the EC50 with SARS-CoV-2 [21] is 20 nM. Further, inhibition in the data set with SARS-CoV-2 [16] was half-maximal at 20 nM (IC50).
In turn, `O=C(NOC[C@H](O)CO)c1ccc(F)c(F)c1Nc1ccc(I)cc1F` [MIRDAMETINIB] had a CC50 in [22] above 100000 nM.
As to `Cc1cn(-c2cc(NC(=O)c3ccc(C)c(Nc4nccc(-c5cccnc5)n4)c3)cc(C(F)(F)F)c2)cn1` [NILOTINIB], the Vd at […] in data set [23], in data set [24], in data set [25] and in data set [26] was 0.55 L/kg each time. The same molecule came in with an EC50 in the data set with SARS-CoV-2 [17] of 80 nM. The Activity entry in the data set with Vero C1008 is recorded as “Non-Toxic”.
`C[C@H](Nc1cc(-c2cnn(C)c2)cc(Nc2cnccn2)n1)c1ccc(F)cc1` [NS-018] had an IC50 in data set [15] of 0.27 nM.
With `COc1cc(F)c(F)c(Nc2ccc(I)cc2F)c1NS(=O)(=O)C1(C[C@H](O)CO)CC1` [REFAMETINIB], the CC50 in [22] was above 100000 nM. Moreover, in the data set with Influenza A virus [27], the half-inhibitory concentration (IC50) was 60 nM.
For `CNC(=O)c1cc(Oc2ccc(NC(=O)Nc3ccc(Cl)c(C(F)(F)F)c3)c(F)c2)ccn1` [REGORAFENIB], the CC50 in [22] was determined as 14200 nM. Further, the response in the data set with Influenza A virus [28] was half-maximal at 890 nM (EC50).
As to `CC(=O)c1c(O)c(C)c(O)c(Cc2c(O)c3c(c(C(=O)/C=C/c4ccccc4)c2O)OC(C)(C)C=C3)c1O` [ROTTLERIN], the CC50 in data set [29] is 100000 nM. It took 1000 nM to reach a half-maximal effect with Lyssavirus rabies (EC50).
On to `Cn1cnc2c(F)c(Nc3ccc(Br)cc3Cl)c(C(=O)NOCCO)cc21` [SELUMETINIB], for which the EC50 in the data set on Influenza A virus [30] and with Influenza A virus [27] was 750 nM each time. Besides, the CC50 in data set [22] was above 100000 nM.
As to `CC(C)(C)c1cc(/C=C(\C#N)C(N)=S)cc(C(C)(C)C)c1O` [TYRPHOSTIN AG 879], the results for the IC50 (with Influenza A virus [20]; in data set [31]) were 10000 nM and 1000 nM, respectively. Further, in the data set on Influenza A virus [32], the Activity came out at 50%. The CC50 in data set [22] is above 81000 nM.
As to `CC[C@@H]1CN(C(=O)NCC(F)(F)F)C[C@@H]1c1cnc2cnc3[nH]ccc3n12` [UPADACITINIB], the affinity in data set [33], expressed as Kd, was 9900 nM.
For the molecule `CNC(=O)c1cccc(-c2ccc3c(N4CCOC[C@@H]4C)nc(N4CCOC[C@@H]4C)nc3n2)c1` [VISTUSERTIB], in the data set on SARS-CoV-2 [17], the half-maximal effective concentration (EC50) came to 15.9 nM. In addition, the Activity result in the data set on Vero C1008 is given as “Non-Toxic”.
